According to PubChem BioAssay AID1918941 (Molecular Pharmacology Branch, DTP, NCI, 2023):

Tested on: SW 1271 complex spheroids, viability
Assay: Anticancer human tumor SW 1271 cell line growth inhibition [LSD1];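 further: spheroids exposed to agents for 7 days before luminescence read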;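 on viability, T/C: 100% = DMSO vehicle control viability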
Details: for IC50: curve of first compound; for viability, T/C: stronger effect = lower value
From the text: Multicellular complex tumor spheroid response to LSD1 Inhibitor Iadademstat in combination with a variety of drugs and investigational agents in selected tumor cell lines
The current study was undertaken to assess response to LSD1 inhibitors in combination with standard-of-care drugs and investigational agents in solid tumor complex spheroid models as well as in the K-562 leukemia. Complex spheroids include a stromal component modeled by human endothelial cells (HUVEC) and fibroblasts modeled by human mesenchymal stem cells (MSCs). The concentration ranges selected for each drug and investigational agent were based upon clinically achievable concentrations if the clinical Cmax of the agent was known.
Compounds. The drugs and investigational agents used in this study are listed on Table 1. All of the agents used, including staurosporine (NSC755774) and gemcitabine (NSC613327), were obtained from the Developmental Therapeutics Program, NCI. FDA-approved anticancer drugs are available from the NCI at http://dtp.nci.nih.gov/branches/dscb/oncology_drugset_explanation.html. Drugs and investigational agents were >95% pure by proton nuclear magnetic resonance (NMR) and liquid chromatography/mass spectrometry (LC/MS). Stock solutions were prepared at 400x in DMSO, stored at -70 degrees C, and diluted in fresh medium prior to their use. The final concentration of DMSO in cell culture wells never exceeded 0.25% (v/v). The FDA-approved anticancer drug set is available from the Developmental Therapeutics Program at https://dtp.cancer.gov/organization/dscb/obtaining/available_plates.htm. All drugs and investigational agents were tested over a range starting from a high concentration at or near the clinical Cmax and decreasing in half-log increments. If the clinical Cmax for an agent had not been determined, the highest concentration tested was 10 microM.
Cell Lines. The patient-derived cancer cell (PDC) lines: 292921-168-R-J2-PDC, K24384-001-R-PDC, and 521955-158-R2-J5-PDC pancreatic carcinomas, 556581-035-R-J1 ovarian carcinoma, 324938-238-R-J1-PDC, 855422-203-R-J1-PDC and 883617-216-R-J1-PDC urothelial bladder carcinomas, 743489-274-T-PDC renal cell carcinoma, 138582-R-J1 Merkel cell tumor, K60290-347-R-J1 and K57222-313-R-J1-PDC glioblastomas, 653999-131-R-J2-PDC, LG0703-F948-PDC, and 349418-098-R-PDC non-small cell lung carcinomas, 885512-296-R-J2-PDC, 171881-019-R-J1-PDC breast carcinomas and 186277-243-T-J2-PDC and 233499-124-R-J2-PDC colon carcinomas were obtained from the NCI Patient-Derived Models Repository (PDMR, https://pdmr.cancer.gov). The established cell lines NCI/ADR-RES (RRID:CVCL_14520 and OVCAR-5 (RRID:CVCL_1628) ovarian carcinomas, 786-O (RRID:CVCL_1051) and A498 (RRID:CVCL_A498) renal cell carcinoma, NCI-H211 (ATCC, cat. CRL-5824; RRID:CVCL_1529), NCI-H196 (ATCC, cat. CRL-5823, RRID:CVCL_1509), SW 1271 (ATCC, cat. CRL-2177, RRID:CVCL_1716) and NCI-H1876 (ATCC, cat. CRL-5902, RRID:CVCL_1503) small cell lung carcinomas, MDA-MB-231 (RRID:CVCL_0062) and MDA-MB-468 (RRID:CVCL_0419)breast carcinomas (10-12). Pooled donor human umbilical vein endothelial cells (HUVEC, Lonza, cat. CC-2519) and human mesenchymal stem cells (hMSC, Lonza, cat. PT-2501) were purchased from Lonza (Walkersville, MD).
Cell Culture. All cells were maintained in an incubator at 37 degrees C and 5% CO2 with 95% humidity. The PDC lines were cultured according to standard operating procedures established by the NCI PDMR (https://pdmr.cancer.gov). Briefly all PDCs were thawed and cultured in Matrigel-coated flasks prepared with a working solution of 1X Ham's F-12 nutrient mix, without supplementation (Invitrogen, Waltham, MA, cat. 11765054), 100 U/mL penicillin-streptomycin (Invitrogen, cat. 15140122), and 2.5% Matrigel (Corning Inc., Corning, NY, cat. 354248) for the first three passages. […]

## CC[C@@]1(O)C(=O)OCc2c1cc1n(c2=O)Cc2cc3c(CN(C)C)c(O)ccc3nc2-1 + NC1CC1c1ccc(-c2cccc(O)c2)cc1
Second compound 0.1 µM
  IC50: 52.6 nM
Second compound 0.316 µM
  IC50: 44.6 nM
Second compound 1 µM
  IC50: 27.8 nM
Second compound 3.16 µM
  IC50: > 100 nM
Second compound 10 µM
  IC50: 57 nM
Second compound 0.1 µM, first compound 0.000316 µM
  viability, T/C: 93.2%
Second compound 0.1 µM, first compound 0.001 µM
  viability, T/C: 81.3%
Second compound 0.1 µM, first compound 0.00316 µM
  viability, T/C: 72.5%
Second compound 0.1 µM, first compound 0.01 µM
  viability, T/C: 63.6%
Second compound 0.1 µM, first compound 0.0316 µM
  viability, T/C: 55.9%
Second compound 0.1 µM, first compound 0.1 µM
  viability, T/C: 43.5%
Second compound 0.316 µM, first compound 0.000316 µM
  viability, T/C: 83%
Second compound 0.316 µM, first compound 0.001 µM
  viability, T/C: 79.4%
Second compound 0.316 µM, first compound 0.00316 µM
  viability, T/C: 77.4%
Second compound 0.316 µM, first compound 0.01 µM
  viability, T/C: 63.6%
Second compound 0.316 µM, first compound 0.0316 µM
  viability, T/C: 54.7%
Second compound 0.316 µM, first compound 0.1 µM
  viability, T/C: 41.6%
Second compound 1 µM, first compound 0.000316 µM
  viability, T/C: 76.6%
Second compound 1 µM, first compound 0.001 µM
  viability, T/C: 79.5%
Second compound 1 µM, first compound 0.00316 µM
  viability, T/C: 69.1%
Second compound 1 µM, first compound 0.01 µM
  viability, T/C: 53.4%
Second compound 1 µM, first compound 0.0316 µM
  viability, T/C: 52.4%
Second compound 1 µM, first compound 0.1 µM
  viability, T/C: 46.5%
Second compound 3.16 µM, first compound 0.000316 µM
  viability, T/C: 84.9%
Second compound 3.16 µM, first compound 0.001 µM
  viability, T/C: 75.5%
Second compound 3.16 µM, first compound 0.00316 µM
  viability, T/C: 66%
Second compound 3.16 µM, first compound 0.01 µM
  viability, T/C: 59.2%
Second compound 3.16 µM, first compound 0.0316 µM
  viability, T/C: 54.3%
Second compound 3.16 µM, first compound 0.1 µM
  viability, T/C: 50.5%
Second compound 10 µM, first compound 0.000316 µM
  viability, T/C: 74.7%
Second compound 10 µM, first compound 0.001 µM
  viability, T/C: 78.9%
Second compound 10 µM, first compound 0.00316 µM
  viability, T/C: 62.1%
Second compound 10 µM, first compound 0.01 µM
  viability, T/C: 58.2%
Second compound 10 µM, first compound 0.0316 µM
  viability, T/C: 54.1%
Second compound 10 µM, first compound 0.1 µM
  viability, T/C: 47.3%
